From patent publication US20170290814A1, “METHODS OF TREATMENT OF CHOLESTASIS AND FIBROSIS” (GENFIT, priority 2016, published 2017)

system: TGFβ1-induced expression of α-SMA protein in human HSC; experiment: α-SMA ELISA in TGFβ1-activated human hepatic stellate cells; type: cell-based; details: [Cpd] = 3 μM, 1 h preincubation, TGFβ1 1 ng/ml, 48 h
Protocol: Serum-deprived HSC were preincubated for 1 hour with RM-5061 before the activation with the profibrogenic cytokine TGFβ1 (1 ng/ml). After 48 hours of incubation, the α-SMA content was measured by ELISA. The obtained values were transformed into percentage inhibition over TGFβ1 control. Data are presented as mean (quadruplicates)±standard error of the mean (SEM). Statistical analyses were performed by one-way ANOVA followed by Bonferroni post-hoc tests, using Sigma Plot 11.0 software. [*: p<0.05; **: p<0.01; ***: p<0.001 (comparison versus TGFβ1 1 ng/mL group)]. The curve fitting and the calculation of half maximal inhibitory concentration (IC50) were performed with XLFit software 5.3.1.3.
Serum-deprived HSC were preincubated for 1 hour with Cpd.5 before the activation with the profibrogenic cytokine TGFβ1 (1 ng/ml). After 48 hours of incubation, the expression of α-SMA was measured by ELISA. The obtained values were transformed into percentage inhibition over TGFβ1 control. Data are presented as mean (triplicates)±standard deviation (SD). Statistical analyses were performed by one-way ANOVA followed by Bonferroni post-hoc tests, using Sigma Plot 11.0 software. [*: p<0.05; **: p<0.01; ***: p<0.001 (comparison versus TGFμ1 1 ng/mL group)]. The curve fitting and the calculation of half maximal inhibitory concentration (IC50) were performed with XLFit software 5.3.1.3.
The human primary hepatic stellate cells (hHSC) (Innoprot) were cultured in STeCM medium (ScienCell cat #5301) that was supplemented with 2% fetal bovine serum (FBS, ScienCell cat #0010), 1% penicillin/streptomycin (ScienCell cat #0503) and stellate cell growth supplement (SteCGS; ScienCell cat #5352). Cell culture flasks were coated with Poly-L Lysine (Sigma cat #P4707) for a better adherence.
The human primary hepatic stellate cells (hHSC) (Innoprot) were cultured under standard conditions, as described above. The cells were subsequently plated at a density of 2×10^4cells/well or 6,5×10^3 cells/well into 96-well or 384-well plates respectively. The next day, cell-culture medium was removed, and cells were washed with PBS (Invitrogen cat #14190). Then, hHSC were deprived for 24 hours in serum-free and SteCGS-free medium. For the treatments with compounds of formula (I), the serum-deprived hHSC were preincubated for 1 hour with the compounds followed by addition of the profibrogenic stimuli TGFβ1 (PeproTech cat #100-21, 1 ng/mL) in serum-free and SteCGS-free medium for an additional 48 hour period. At the end of treatment, the cell culture supernatants of treated-HSC were transferred into a new plate before storage at −20° C.The cells were washed with PBS (Invitrogen, cat #14190) before the addition of lysis buffer (CelLytic™ MT reagent; Sigma #C3228). Plates were then incubated for 30 min on ice using a plate shaker, before storage at −20° C.
The level of α-SMA was measured using a Sandwich ELISA. Briefly, the wells of an ELISA plate were first coated with the capture antibody (mouse monoclonal anti-ACTA2, Abnova) at 4° C. overnight. After 3 washes in PBS +0.2% Tween 20, a blocking solution consisting of PBS +0.2% BSA was added for one hour followed by another washing cycle. The cell lysates were transferred into the wells for binding to the capture antibody for a period of 2 h at room temperature. After the washing procedure, the detection antibody (biotinylated mouse monoclonal anti-ACTA2, Abnova) was added for 2 hours at room temperature followed by 3 washes. For the detection, an HRP-conjugated Streptavidin (R&D Systems cat #DY998) was first applied for 30 min at room temperature. After washing, the HRP substrate TMB (;BD, #555214) was added and incubated for 7 min at room temperature in the dark. Upon oxidation, TMB forms a water-soluble blue reaction product that becomes yellow with addition of sulfuric acid (solution stop), enabling accurate measurement of the intensity at 450 nm using a spectrophotometer. […]

Row | SMILES | % I over TGFβ (α-SMA) [%]
1 | O=C(Nc1nc(-c2ccc3ccccc3c2)cs1)c1cc([N+](=O)[O-])ccc1Cl [Cpd4, 2-chloro-N-[4-(2-naphthyl)-1,3-thiazol-2-yl]-5-nitrobenzamide] | 53
2 | O=C(O)c1ccccc1-c1ccccc1C(=O)Nc1nc2ccccc2s1 [Cpd1, 2′-(benzo[d]thiazol-2-ylcarbamoyl)-[1,1′-biphenyl]-2-carboxylic acid] | 40
3 | COc1ccccc1C(=O)Nc1nc(-c2cccs2)c(NC(=O)c2ccccc2)s1 [Cpd2, N-(5-benzamido-4-(thiophen-2-yl)-1,3-thiazol-2-yl)-2-methoxybenzamide] | 43
4 | Cc1sc(NC(=O)c2c(F)cccc2F)nc1-c1ccccc1 [Cpd3, 2,6-difluoro-N-(5-methyl-4-phenyl-1,3-thiazol-2-yl)benzamide] | 48
